Results: patent EP4722219A1 (Gan & Lee Pharmaceuticals Co., Ltd., priority 2023, dated 2024)
Changes are numbered by the printed parent chain.

Assays:
Assay type in all cases: cell-based
[1] = target: T1, AR protein (Homo sapiens, UniProt P10275, T878A); test: AR protein degradation in LNCaP cells (Western blot); settings: 8 hours
T1 construct: host or cells: LNCaP FGC
T1 sequence (P10275 1-920 T878A): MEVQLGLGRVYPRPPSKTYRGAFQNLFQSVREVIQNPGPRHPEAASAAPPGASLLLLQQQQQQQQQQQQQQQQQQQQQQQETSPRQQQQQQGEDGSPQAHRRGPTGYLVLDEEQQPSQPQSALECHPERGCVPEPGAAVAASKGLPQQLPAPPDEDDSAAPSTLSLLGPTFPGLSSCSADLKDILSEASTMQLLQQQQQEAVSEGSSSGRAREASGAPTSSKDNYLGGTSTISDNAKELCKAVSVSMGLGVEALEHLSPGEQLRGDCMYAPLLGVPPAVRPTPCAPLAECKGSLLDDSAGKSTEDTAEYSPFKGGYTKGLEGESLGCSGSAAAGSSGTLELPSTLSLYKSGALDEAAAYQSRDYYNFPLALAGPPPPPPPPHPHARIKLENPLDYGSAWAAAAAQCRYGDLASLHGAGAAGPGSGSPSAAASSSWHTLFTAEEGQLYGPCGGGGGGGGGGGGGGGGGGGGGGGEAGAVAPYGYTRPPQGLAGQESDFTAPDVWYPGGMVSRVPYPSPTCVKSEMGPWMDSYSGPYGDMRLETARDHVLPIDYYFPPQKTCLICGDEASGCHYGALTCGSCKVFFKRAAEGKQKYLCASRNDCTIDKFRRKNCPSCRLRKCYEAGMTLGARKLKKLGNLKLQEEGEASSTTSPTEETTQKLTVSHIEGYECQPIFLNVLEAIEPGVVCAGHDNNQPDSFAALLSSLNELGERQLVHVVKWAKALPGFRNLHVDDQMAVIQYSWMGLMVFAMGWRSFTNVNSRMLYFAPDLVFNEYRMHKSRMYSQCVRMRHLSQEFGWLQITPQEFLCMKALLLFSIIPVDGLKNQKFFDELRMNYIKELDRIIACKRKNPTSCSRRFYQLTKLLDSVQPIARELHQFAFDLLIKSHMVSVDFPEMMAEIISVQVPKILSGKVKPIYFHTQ
Description: At the same time, the corresponding solvent control was set and cultured for 8 hours. After 8 hours of culture, the culture medium was removed, the cells were washed with PBS, and RIPA lysis buffer containing 1% Protease Inhibitor Cocktail was added. After lysis and centrifugation, the total protein extract was obtained, and the protein concentration in the extract was detected by BCA method. Protein electrophoresis was performed using SDS-PAGE, and then the protein was transferred to a PVDF (Millipore Sigma catalog number PSRP010R5) membrane at a constant voltage of 100V for 60 minutes. The PVDF membrane was placed in a 5% milk powder 1 ×TBST solution and blocked at room temperature for 1 hour. […] The primary antibody solution was discarded and the PVDF membrane was washed with 1×TBST for 5 minutes each time, for three times. […] The secondary antibody solution was discarded and the PVDF membrane was washed with 1 ×TBST for 5 minutes each time, for three times. A dual-color infrared laser imaging system (Licor catalog number Odyssey CLX) was used for Western membrane imaging. The Image Studio software was used to analyze the grayscale of the bands. GAPDH protein bands were also detected for each sample as the reference. The AR protein degradation rate of the compound and the positive control sample was calculated based on the grayscale of the protein bands.

[2] = target: T2, AR protein (Homo sapiens, UniProt P10275); test: AR protein degradation in VCaP cells (Western blot); settings: 8h
T2 construct: host or cells: VCaP
T2 sequence (P10275 1-920): T1 sequence (P10275 1-920 T878A) with A878T
Description: The degradation activity of the compounds disclosed in the present invention on AR protein in VCaP cells (cell source: ATCC)
The AR-positive human prostate cancer cells VCaP cultured in DMEM (GiBco catalog number 11995-065) containing 10% FBS (Hyclone catalog number SH30406.05) was inoculated in a six-well microplate (Thermo catalog number 140675) at a concentration of 3×10^5 cells/ well. After being cultured overnight in a carbon dioxide incubator (ESCO), the prepared compound of the present invention and the positive control sample ARV-766 (Annaiji) solution of different concentrations were added at a volume of 1 µL/well to make the final concentrations of the compound and the positive control sample reach 5nM and 0.5nM, respectively. At the same time, the corresponding solvent control was set and cultured for 8h. After 8h of culture, the culture medium was removed, and the cells were washed with PBS. RIPA lysis buffer containing 1% Protease Inhibitor Cocktail was added. After lysis and centrifugation, a total protein extract was obtained, and the protein concentration in the extract was detected by BCA method. Protein electrophoresis was performed using SDS-PAGE, and then the protein was transferred to a PVDF (Millipore Sigma catalog number PSRP010R5) membrane at a constant voltage of 100V for 60min. The PVDF membrane was placed in a 5% milk powder 1×TBST solution and blocked at room temperature for 1h. The primary antibody solution (Anti-Androgen receptor, Cell Signaling Technology catalog number: 5153S; 1:2000 dilution) was prepared and was incubated at 4°C overnight. The primary antibody solution was discarded and the PVDF membrane was washed with 1×TBST for 5 minutes each time, for three times. The secondary antibody solution (Thermo catalog number SA5-35571; 1:7500 dilution) was prepared and was incubated at room temperature for 1 hour. The secondary antibody solution was discarded and the PVDF membrane was washed with 1×TBST for 5 minutes each time, for three times. A dual-color infrared laser imaging system (Licor catalog number Odyssey CLX) was used for Western membrane imaging. Image Studio software was used to analyze the grayscale of the bands. GAPDH protein bands were also detected for each sample as the reference. The AR protein degradation rate of the compound and the positive control sample was calculated based on the grayscale of the protein bands.
Table 7 Degradation rate of AR protein in VCaP cells by the compounds disclosed in the present invention

[3] = test system: T-47D cells; test: Inhibition of cell proliferation in T-47D cells (CCK-8); settings: 6 days treatment, CCK-8 cell viability
Description: Test Example 2 Inhibitory effect of PROTAC compounds provided by the present invention on cell proliferation in T-47D cells
The complete culture medium required for T-47D cells is 1640 (ATCC, Product number: A10491-01) basal culture medium containing 10% fetal bovine serum. T-47D cells were seeded in 96-well plates at a density of 3,000 cells/well, and different concentrations of PROTAC compounds 1-55 provided in the examples of the present invention and positive control sample ARV-471 (source: Inokai) were prepared to treat the cells and incubated at 37 °C, 5% CO2 cell culture incubator for 6 days. According to the manufacturer's instructions, cell viability was detected using a CCK-8 kit (Beyotime, Product number: C0040). The IC50 of each compound after treating for 6 days was calculated using GraphPadPrism software based on the inhibition rate. Table 2 Inhibition IC50 value of T-47D cell proliferation by PROTAC compounds provided by the present invention and positive control sample

[4] = test system: MCF-7 cells; test: Inhibition of cell proliferation in MCF-7 cells (CCK-8); settings: MCF-7 cell proliferation, 6 days treatment
Description: Test Example 3 Inhibitory effect of PROTAC compounds provided by the present invention on cell proliferation in MCF-7 cells
The complete culture medium required for MCF-7 cells (source ATCC) is DMEM (gibco, Product number: 11995-065) basal culture medium containing 10% fetal bovine serum. MCF-7 cells were seeded in 96-well plates at a density of 800 cells/well, and different concentrations of PROTAC compounds 1-55 provided in the examples of the present invention and positive control sample ARV-471 (source: Inokai) were prepared to treat the cells and incubated at 37 °C, 5% CO2 cell culture incubator for 6 days. According to the manufacturer's instructions, cell viability was detected using a CCK-8 kit (Beyotime, Product number: C0040). The IC50 of each PROTAC compound after treating for 6 days was calculated using GraphPadPrism software based on the inhibition rate. Table 3 Inhibition IC50 value of MCF-7 cell proliferation by PROTAC compounds of the present invention and positive control sample

COc1cc(O[C@H]2C(C)(C)[C@H](NC(=O)c3ccc(N4CCC(CN5CCC6(CC5)COc5c6ccc6c5n(C)c(=O)n6C5CCC(=O)NC5=O)CC4)nn3)C2(C)C)ccc1C#N (relative stereo) [A-P-27]
Degradation of AR protein in LNCaP cells, 10 nM (%) ([1]; 10 nM): 43% | Degradation of AR protein in LNCaP cells, 100 nM (%) ([1]; 100 nM): 43% | Degradation rate of AR protein in VCaP cells ([2]; 0.5 nM): 78% | Degradation rate of AR protein in VCaP cells ([2]; 5 nM): 80%

COc1cc(O[C@H]2CC[C@H](NC(=O)c3ccc(N4CCC5(CC4)CC(N4CCC6(CC4)COc4cc7c(cc46)n(C)c(=O)n7C4CCC(=O)NC4=O)C5)nn3)CC2)ccc1C#N (stereo partly drawn) [A-P-11]
percent AR protein degradation at a fixed concentration at 0.01 µM ([1]; 10 nM): 76% | percent AR protein degradation at a fixed concentration at 0.1 µM ([1]; 100 nM): 32%

Cn1c(=O)n(C2CCC(=O)NC2=O)c2cc3c(cc21)OC1(CC3)CCN(CC2CC(OC3CCN(c4ccc([C@@H]5c6ccc(O)cc6CC[C@@H]5c5ccccc5)cc4)CC3)C2)CC1 (stereo partly drawn) [ER-P-81, 3-(1'-(((1S,3s)-3-((1-(4-((1R,2S)-6-hydroxy-2-phenyl-1,2,3,4-tetrahydronaphthalen-1-yl)phenyl)piperidin-4-yl)oxy)cyclobutyl)methyl)-3-methyl-2-oxo-2,3,7,8-tetrahydro-1H-spiro[chromeno[6,7-d]imidazole-6,4'-piperidin]-1-yl)piperidine-2,6-dione]
IC50 [3]: 2.57 nM | IC50 [4]: 1.6 nM

CN(CC(=O)N1CCC2(CC1)CCC1(CC2)COc2c1ccc1c2CN(C2CCC(=O)NC2=O)C1=O)C1CCC2(CC1)CN(c1ccc([C@@H]3c4ccc(O)cc4CC[C@@H]3c3ccccc3)cc1)C2 (stereo partly drawn) [ER-P-71, 3-(1"-(N-(2-(4-((1R,2S)-6-hydroxy-2-phenyl-1,2,3,4-tetrahydronaphthalen-1-yl)phenyl)-2-azaspiro[3.5]nonan-7-yl)-N-methylglycyl)-6-oxo-6,8-dihydro-2H,7H-dipyridole[furo[2,3-e]isoindole-3,1'-cyclohexane-4',4"-piperidin]-7-yl)piperidine-2,6-dione]
IC50 ([3]; Homo sapiens, T47D, 144 h): 8.54 nM | IC50 ([4]; Homo sapiens, MCF7, 144 h): 2020 nM

Cn1c(=O)n(C2CCC(=O)NC2=O)c2ccc3c(c21)OCC31CCN(CC2CC(OC3CCN(c4ccc([C@@H]5c6ccc(O)cc6CC[C@@H]5c5ccccc5)cc4)CC3)C2)CC1 (stereo partly drawn) [ER-P-80, 3-(1'-(((1S,3s)-3-((1-(4-((1R,2S)-6-hydroxy-2-phenyl-1,2,3,4-tetrahydronaphthalen-1-yl)phenyl)piperidin-4-yl)oxy)cyclobutyl)methyl)-1-methyl-2-oxo-1,2-dihydro-3H,7H-spiro[benzofuro[6,7-d]imidazole-6,4'-piperidin]-3-yl)piperidine-2,6-dione]
IC50 [3]: 0.9 nM

O=C1CCC(Nc2ccc3c(c2)OCC32CCN(CC3CC(OC4CCN(c5ccc([C@@H]6c7ccc(O)cc7CC[C@@H]6c6ccccc6)cc5)CC4)C3)CC2)C(=O)N1 (stereo partly drawn) [ER-P-92, 3-((1'-(((1S,3s)-3-((1-(4-((1R,2S)-6-hydroxy-2-phenyl-1,2,3,4-tetrahydronaphthalen-1-yl)phenyl)piperidin-4-yl)oxy)cyclobutyl)methyl)-2H-spiro[benzofuran-3,4'-piperidin]-6-yl)amino)piperidine-2,6-dione]
IC50 [3]: 4.56 nM
